Laboratory results: patent US11541027B2 (DelMar Pharmaceuticals, Inc., priority 2014, dated 2023)
Entries after “also recorded” stand apart in the source; their conditions may differ.

System: A549 (TKI-sensitive) human lung adenocarcinoma xenograft tumors
Test: A549 NSCLC xenograft tumor model in female Rag2 mice
Conditions: for MTV at Day 68 / Median survival / TCR at Day 68 / TGD / TGI (%): W, F × 3; for MTV at Day 68 / Median survival / TCR at Day 68 / TGD / TGI (%) / number of animals remaining on study on day 70 / day on which a mean tumor volume of 200 mm^3 was observed / day on which a mean tumor volume of 400 mm^3 was reached / doubling time: A549 model; for TCR at Day 68: tumor control ratio; for TGD: tumor growth delay vs untreated control, doubling time 200 to 400 mm^3; for TGI (%): tumor growth inhibition; for day on which a mean tumor volume of 200 mm^3 was observed / day on which a mean tumor volume of 400 mm^3 was reached: days post-inoculation; for doubling time: mean tumor volume 200 to 400 mm^3
Experimental: Rag2 mice bearing subcutaneous human lung adenocarcinoma xenograft tumors of either TKI-resistant (H1975) or TKI-sensitive (A549) origin were treated.
Two human NSCLC cell lines, A549 (TKI-sensitive) and H1975 (TKI-resistant), were used as xenograft tumor models in female Rag2 mice. The mice were 6 to 8 weeks of age and weighed 18-23 grams. 10 mice were used per group.
Cisplatin was used in normal saline at a dose of 5 mg/kg. Administration was intravenous.
Administration was intraperitoneal.
Treatment was initiated at a tumor volume of 100 mm^3 to 150 mm^3.
The cells were started from a frozen vial of lab stock that were frozen down from the ATCC original vial and kept in liquid nitrogen. Cell cultures with a passage number of 3 to 10 and a confluence of 80%-90% were used. […] Cells were subcultured once weekly with a split ratio 1:3 to 1:8 and expanded.
For cell preparation and harvesting for subcutaneous (s.c.) inoculation, the cells were rinsed briefly once with Hanks Balanced Salt Solution without calcium or magnesium. […] The cells were allowed to sit at 37° C. for a few minutes. The cells were observed under an inverted microscope until the cell layer was dispersed, fresh medium was added, 50 μL of cell suspension was taken and mixed with trypan blue (1:1), and the cells were counted and cell viability assessed by using Cellometer Auto T4. The cells were centrifuged at 200×g for 7 minutes and the supernatant was aspirated. The cells were resuspended in growth medium to obtain a concentration of 100×10^6 cells/mL. For inoculation, 5×10^6 cells were used in an injection volume of 50 μL per mouse in 1:1 Matrigel.
On day 0, tumor cells were implanted subcutaneously into mice in a volume of 50 μL in Matrigel using a 28-gauge needle; injection of the tumor cells was in the back of the mice. Mice were randomly assigned to groups based on tumor volume.
For administration, 5 mL of 0.9% sodium chloride for injection, USP (saline) was added to yield a DAG solution with a concentration of 8 mg/mL.
Mice were injected with the required volume to administer the prescribed dose (mg/kg) to the animals based on individual mouse weights using a 28-gauge needle. The injection volume was 200 μL for a 20-g mouse. The mice were briefly (less than 30 seconds) restrained during intravenous injections. Dilation of the vein for intravenous injections was achieved by holding the animals under a heat lamp for a period of between 1-2 minutes.
Mice were individually weighed and injected intraperitoneally according to body weight at the specified injection concentration (see Table 1). The injection volume was based on 200 μL per 20-g mouse. The abdominal surface was wiped down with 70% isopropyl alcohol to clean the injection site.
Tumor growth was monitored by measuring tumor dimensions with calipers beginning on the first day of treatment. Tumor length and width measurements were obtained each Monday, Wednesday, and Friday. Tumor volumes were calculated according to the equation L×W^2/2 with the length (in mm) being defined as the longer axis of the tumor. Animals were weighed at the time of tumor measurement. Tumors were allowed to grow to a maximum of 800 mm^3 before termination.
All animals had blood collected by cardiac puncture at termination for CBC (complete blood count) with differentiation.
In particular, signs of ill-health were based on body weight loss, change in appetite, and behavioral signs such as altered gait, lethargy, and gross manifestations of stress.

[1] = group 5, 6 mg/kg i.p., only 3 of 9 scheduled doses

What does the source list for dianhydrogalactitol?
MTV at Day 68 (1.5 mg/kg i.p. M): 440 mm^3; Median survival (1.5 mg/kg i.p. M): 73.5 days; TCR at Day 68 (1.5 mg/kg i.p. M): 0.69; TGD (1.5 mg/kg i.p. M): 9 days; TGI (%) (1.5 mg/kg i.p. M): 32%; MTV at Day 68 (3 mg/kg i.p. M): 303 mm^3; Median survival (3 mg/kg i.p. M): 82 days; TCR at Day 68 (3 mg/kg i.p. M): 0.47; TGD (3 mg/kg i.p. M): 26 days; TGI (%) (3 mg/kg i.p. M): 55%; body weight / tolerability of the dosage (6 mg/kg i.p., treatment stopped after 3 doses, A549 tumor-bearing Rag2 mice): significant body weight loss; also recorded: significant weight loss and morbidity; number of animals remaining on study on day 70 (group 3, 1.5 mg/kg i.p. Monday, Wednesday, Friday for 3 weeks): 7/10; day on which a mean tumor volume of 200 mm^3 was observed (group 3, 1.5 mg/kg i.p.): 45 days; day on which a mean tumor volume of 400 mm^3 was reached (group 3, 1.5 mg/kg i.p.): 67 days; doubling time (group 3, 1.5 mg/kg i.p.): 22; number of animals remaining on study on day 70 (group 4, 3 mg/kg i.p. Monday, Wednesday, Friday for 3 weeks): 6/10; day on which a mean tumor volume of 200 mm^3 was observed (group 4, 3 mg/kg i.p.): 42 days; day on which a mean tumor volume of 400 mm^3 was reached (group 4, 3 mg/kg i.p.): 81 days; doubling time (group 4, 3 mg/kg i.p.): 39; number of animals remaining on study on day 70 [1]: 8/10; day on which a mean tumor volume of 200 mm^3 was observed [1]: 54 days; hemoglobin (g/L), CBC analysis at termination, versus untreated control (groups 4 or 5 (3 or 6 mg/kg i.p.), A549 tumor-bearing Rag2 mice): Statistical significance (p<0.05)
